Test results reported in patent US7351744B2, “Naphthalene derivatives as termite repellents and toxicants” (Board of Supervisors of Louisiana State University and …, priority 2003, dated 2008).

System: C. formosanus workers
Assay: whole plant or invertebrate
Type: in vivo, Coptotermes formosanus
Settings: for Consumption (mg) day 8: wood slice
Protocol: Three-chambered transparent plastic containers as described in Example 4 were used to test the effectiveness of 2′-acetonaphthone as a barrier to prevent termites from reaching a food source. Each tested concentration of 2′-acetonaphthone was dissolved in 60 ml ethanol and mixed with 600 g of sand. For a control, 600 g of sand was mixed with 60 ml ethanol. The untreated and treated sand were placed in holding containers, and kept overnight at ambient conditions for solvent evaporation. In each container, sand was mixed with 60 ml DDH2O. Into the middle chamber, 110 g of either treated or untreated sand was gently added, packed, and leveled to clearly see tunnels. Six replicates were used for each concentration and control. Weighed balsa wood slices (0.159 cm×3.5 cm×6.0 cm, Ochroma lagopus Swartz) were placed in one of the two lateral chambers and wetted with 1 ml DDH2O. Into each container, 200 workers and 20 soldiers were released in the opposite lateral chamber from the wood slice. Termites were thus required to cross through the treated sand in the middle chamber to reach the food source. Containers were covered, and incubated in complete darkness at 27.4° C. and 70% RH. If necessary, 1 ml DDH2O was added to the sand and wood slice twice a week to maintain proper moisture. Three separate experiments were conducted using the same technique with different colonies.
In the first experiment, termites from Colony BS were used, and tested concentrations of 2′-acetonaphthone were 0.0, 16.67, 33.33, 50.0, 100.0, and 200.0 mg/kg sand. The number of dead workers was recorded daily to day 6. On day 6, the number of living workers in the releasing chamber was also recorded, and the bottoms of the three-chambered containers were scanned (ScanJet 4C, Hewlett-Packard, Palo Alto, Calif.). The images were printed in actual size, and the tunnel areas measured. After 8 days, the total number of living workers in each container was recorded; and the wood slices were gently cleaned using deionized water with a small brush. The slices were then oven dried at 60° C. for 3 h and reweighed. The difference in weight of the wood slices from the initial weighing was used to calculate food consumption.
The experiment was repeated a third time to further test for molting failures. The protocol was described as above. Five concentrations of 2′-acetonaphthone (4.15, 8.33, 16.67, 33.33, and 66.67 mg/kg sand) were evaluated using termites from colony WB. Tunnels were scanned, printed, and areas measured on days 2, 3, 4 and 7. Percent survival and food consumption were calculated on day 12 as previously described. To evaluate the effect of 2′-acetonaphthone treatments on worker survival, tunnel area and food consumption, an analysis of variance was conducted followed by a least significant difference procedure.

[1] = Coptotermes formosanus, 168 h, read-out: Mortality (%), day 7

CC(=O)c1ccc2ccccc2c1 [2′-acetonaphthone]
Food consumption (mg) day 12 (4.16 mg kg^−1, colony E): 27.1 ± 2.3 b mg | Molting failure (%), day 7 (4.16 mg kg^−1, colony E): 26.7 ± 6.0 a % | Survival (%) day 12 (4.16 mg kg^−1, colony E): 34.2 ± 6.0 a % | Termite (%), workers counted in the releasing chambers on day 5 (4.16 mg kg^−1, colony E): 34.9 ± 2.8 b % | Tunnel area (cm^2), day 12 (4.16 mg kg^−1, colony E): 22.8 ± 4.4 a cm^2 | Food consumption (mg) day 12 (4.16 mg/kg, colony WB): 35.0 ± 13.8 a mg | Survival (%) day 12 (4.16 mg/kg, colony WB): 55.8 ± 7.3 a % | Tunnel area (cm^2), day 2 (4.16 mg/kg, colony WB): 3.4 ± 1.6 a cm^2 | Tunnel area (cm^2), day 3 (4.16 mg/kg, colony WB): 6.1 ± 2.6 ab cm^2 | Tunnel area (cm^2), day 4 (4.16 mg/kg, colony WB): 8.0 ± 2.7 ab cm^2 | Tunnel area (cm^2), day 7 (4.16 mg/kg, colony WB): 17.0 ± 4.5 a cm^2 | Food consumption (mg) day 12 (8.33 mg kg^−1, colony E): 0.0 ± 0.0 c mg | Molting failure (%), day 7 (8.33 mg kg^−1, colony E): 11.5 ± 1.9 b % | Survival (%) day 12 (8.33 mg kg^−1, colony E): 4.2 ± 1.9 b % | Termite (%), workers counted in the releasing chambers on day 5 (8.33 mg kg^−1, colony E): 77.9 ± 4.5 a % | Tunnel area (cm^2), day 12 (8.33 mg kg^−1, colony E): 2.8 ± 1.9 b cm^2 | Food consumption (mg) day 12 (8.33 mg/kg, colony WB): 8.3 ± 3.1 b mg | Survival (%) day 12 (8.33 mg/kg, colony WB): 7.4 ± 3.3 b % | Tunnel area (cm^2), day 2 (8.33 mg/kg, colony WB): 2.3 ± 1.3 a cm^2 | Tunnel area (cm^2), day 3 (8.33 mg/kg, colony WB): 3.1 ± 1.2 bc cm^2 | Tunnel area (cm^2), day 4 (8.33 mg/kg, colony WB): 3.5 ± 1.3 bc cm^2 | Tunnel area (cm^2), day 7 (8.33 mg/kg, colony WB): 4.5 ± 1.8 b cm^2 | Food consumption (mg) day 12 (16.67 mg kg^−1, colony E): 0.0 ± 0.0 c mg | Molting failure (%), day 7 (16.67 mg kg^−1, colony E): 13.9 ± 1.2 b % | Survival (%) day 12 (16.67 mg kg^−1, colony E): 0.0 ± 0.0 b % | Termite (%), workers counted in the releasing chambers on day 5 (16.67 mg kg^−1, colony E): 78.6 ± 4.0 a % | Tunnel area (cm^2), day 12 (16.67 mg kg^−1, colony E): 0.0 ± 0.0 b cm^2 | Survival (%) day 8 (16.67 mg/kg sand, colony BS): 6.8 ± 6.7 b % | Termite (%) day 6, percent workers in the releasing chambers (16.67 mg/kg sand, colony BS): 39.8 ± 8.8 b % | Tunnel area (cm^2) day 6 (16.67 mg/kg sand, colony BS): 1.4 ± 0.9 b cm^2 | Consumption (mg) day 8 (16.67 mg/kg sand, colony BS): 3.3 ± 3.3 b mg | Food consumption (mg) day 12 (16.67 mg/kg, colony WB): 3.3 ± 2.1 b mg | Survival (%) day 12 (16.67 mg/kg, colony WB): 0.0 ± 0.0 b % | Tunnel area (cm^2), day 2 (16.67 mg/kg, colony WB): 0.9 ± 0.4 a cm^2 | Tunnel area (cm^2), day 3 (16.67 mg/kg, colony WB): 1.6 ± 1.0 bc cm^2 | Tunnel area (cm^2), day 4 (16.67 mg/kg, colony WB): 1.7 ± 1.0 c cm^2 | Tunnel area (cm^2), day 7 (16.67 mg/kg, colony WB): 0.7 ± 0.5 b cm^2 | Food consumption (mg) day 12 (33.33 mg kg^−1, colony E): 0.0 ± 0.0 c mg | Molting failure (%), day 7 (33.33 mg kg^−1, colony E): 15.9 ± 2.4 b % | Survival (%) day 12 (33.33 mg kg^−1, colony E): 0.0 ± 0.0 b % | Termite (%), workers counted in the releasing chambers on day 5 (33.33 mg kg^−1, colony E): 79.6 ± 2.2 a % | Tunnel area (cm^2), day 12 (33.33 mg kg^−1, colony E): 0.0 ± 0.0 b cm^2 | Survival (%) day 8 (33.33 mg/kg sand, colony BS): 19.1 ± 9.1 b % | Termite (%) day 6, percent workers in the releasing chambers (33.33 mg/kg sand, colony BS): 39.8 ± 10.2 b % | Tunnel area (cm^2) day 6 (33.33 mg/kg sand, colony BS): 5.5 ± 2.1 b cm^2 | Consumption (mg) day 8 (33.33 mg/kg sand, colony BS): 11.7 ± 8.2 b mg | Food consumption (mg) day 12 (33.33 mg/kg, colony WB): 3.3 ± 2.1 b mg | Survival (%) day 12 (33.33 mg/kg, colony WB): 0.1 ± 0.1 b % | Tunnel area (cm^2), day 2 (33.33 mg/kg, colony WB): 0.0 ± 0.0 a cm^2 | Tunnel area (cm^2), day 3 (33.33 mg/kg, colony WB): 0.0 ± 0.0 c cm^2 | Tunnel area (cm^2), day 4 (33.33 mg/kg, colony WB): 0.0 ± 0.0 c cm^2 | Tunnel area (cm^2), day 7 (33.33 mg/kg, colony WB): 0.0 ± 0.0 b cm^2 | Survival (%) day 8 (50.0 mg/kg sand, colony BS): 1.8 ± 1.8 b % | Termite (%) day 6, percent workers in the releasing chambers (50.0 mg/kg sand, colony BS): 31.2 ± 2.8 b % | Tunnel area (cm^2) day 6 (50.0 mg/kg sand, colony BS): 2.5 ± 1.1 b cm^2 | Consumption (mg) day 8 (50.0 mg/kg sand, colony BS): 0.0 ± 0.0 b mg | Food consumption (mg) day 12 (66.67 mg/kg, colony WB): 4.2 ± 3.3 b mg | Survival (%) day 12 (66.67 mg/kg, colony WB): 0.0 ± 0.0 b % | Tunnel area (cm^2), day 2 (66.67 mg/kg, colony WB): 0.4 ± 0.2 a cm^2 | Tunnel area (cm^2), day 3 (66.67 mg/kg, colony WB): 0.4 ± 0.2 c cm^2 | Tunnel area (cm^2), day 4 (66.67 mg/kg, colony WB): 0.4 ± 0.2 c cm^2 | Tunnel area (cm^2), day 7 (66.67 mg/kg, colony WB): 0.4 ± 0.2 b cm^2 | Survival (%) day 8 (100.0 mg/kg sand, colony BS): 0.0 ± 0.0 b % | Termite (%) day 6, percent workers in the releasing chambers (100.0 mg/kg sand, colony BS): 79.8 ± 8.7 a % | Tunnel area (cm^2) day 6 (100.0 mg/kg sand, colony BS): 3.3 ± 1.6 b cm^2 | Consumption (mg) day 8 (100.0 mg/kg sand, colony BS): 0.0 ± 0.0 b mg | Survival (%) day 8 (200.0 mg/kg sand, colony BS): 1.3 ± 1.3 b % | Termite (%) day 6, percent workers in the releasing chambers (200.0 mg/kg sand, colony BS): 81.8 ± 6.0 a % | Tunnel area (cm^2) day 6 (200.0 mg/kg sand, colony BS): 0.0 ± 0.0 b cm^2 | Consumption (mg) day 8 (200.0 mg/kg sand, colony BS): 0.0 ± 0.0 b mg | mortality at 4.16 mg/kg [1]: 35.9 ± 4.4% | mortality at 8.33 mg/kg [1]: 71.8 ± 8.8% | mortality at 16.67 mg/kg [1]: 99.5 ± 0.5% | mortality at 33.33 mg/kg [1]: 100% | Food consumption (all treatments 16.67 to 200 mg/kg, control 98.3 mg, day 8): ≤ 11.7 mg | concentration giving significant reduction in tunneling and feeding activity (as low as): 8 mg/kg sand | concentration at which no food was consumed (colony BS, day 8): ≥ 50 mg/kg | concentration at which no termite reached the feeding chamber (colony E): > 8.16 mg/kg | concentration forming an effective barrier (toxic, inhibits tunneling and feeding) (treated sand): ≥ 8.33 mg/kg
